Laboratory results as given in EP4656642A1, “ESTROGEN RECEPTOR PROTEOLYSIS TARGETING CHIMERA COMPOUND AND USE THEREOF” (GAN & LEE PHARM CO., LTD, priority 2023, dated 2024).

Key:
Assay type in all cases: cell-based
AR protein = target: T1, AR protein (Homo sapiens, UniProt P10275, T878A); assay: Degradation of AR protein in LNCAP cells (Western blot, 8 h); conditions: LNCaP FGC cells
T1 construct: host or cells: LNCaP FGC
T1 sequence (P10275 1-920 T878A): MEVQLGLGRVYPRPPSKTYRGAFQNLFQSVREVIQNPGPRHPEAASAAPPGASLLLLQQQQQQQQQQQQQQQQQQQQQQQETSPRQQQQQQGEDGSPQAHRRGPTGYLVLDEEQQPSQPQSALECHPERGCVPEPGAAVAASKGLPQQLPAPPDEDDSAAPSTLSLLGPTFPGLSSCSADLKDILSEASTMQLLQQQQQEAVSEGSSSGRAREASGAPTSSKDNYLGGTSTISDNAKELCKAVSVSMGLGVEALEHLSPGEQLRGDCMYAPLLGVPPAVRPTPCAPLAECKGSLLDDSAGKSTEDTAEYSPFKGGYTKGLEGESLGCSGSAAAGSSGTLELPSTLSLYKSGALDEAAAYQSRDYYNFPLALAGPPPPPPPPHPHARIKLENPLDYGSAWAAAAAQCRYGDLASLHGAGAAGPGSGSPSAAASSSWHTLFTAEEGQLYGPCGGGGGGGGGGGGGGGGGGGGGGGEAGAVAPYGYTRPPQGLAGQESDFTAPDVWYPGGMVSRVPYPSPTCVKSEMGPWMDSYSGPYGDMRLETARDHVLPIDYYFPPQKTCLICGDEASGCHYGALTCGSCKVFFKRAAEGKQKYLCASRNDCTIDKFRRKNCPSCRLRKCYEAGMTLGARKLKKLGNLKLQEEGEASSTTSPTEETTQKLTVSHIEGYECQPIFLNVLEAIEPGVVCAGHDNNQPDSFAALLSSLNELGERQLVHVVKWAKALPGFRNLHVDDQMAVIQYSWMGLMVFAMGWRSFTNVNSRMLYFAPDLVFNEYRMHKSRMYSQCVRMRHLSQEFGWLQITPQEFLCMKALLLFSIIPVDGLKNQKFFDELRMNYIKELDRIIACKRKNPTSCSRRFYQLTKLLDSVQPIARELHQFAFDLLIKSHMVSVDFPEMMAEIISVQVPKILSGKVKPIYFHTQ
Experimental: After 8 h, the culture medium was discarded, and the cells were washed with PBS. After the cells were washed with PBS, RIPA lysis buffer containing 1% Protease Inhibitor Cocktail was added, and the total protein extract was obtained after lysis and centrifugation, and the protein concentration in the extract was detected by BCA method. Protein electrophoresis was carried out by SDS-PAGE, after which the proteins were transferred to PVDF (Millipore Sigma Catalog No. PSRP010R5) membrane by 100V constant voltage electrotransfer for 60 min, and the PVDF membrane was placed in 1×TBST solution with 5% milk and blocked at room temperature for 1h. […] The primary antibody solution was discarded, and the PVDF membrane was washed three times with 1× TBST for 5 min each. […] The secondary antibody solution was discarded, and the PVDF membrane was washed three times with 1× TBST for 5 min each. Western membrane imaging was performed using a dual-color infrared laser imaging system (Licor catalog number Odyssey CLX). Bands were analyzed in grayscale using the software Image Studio. For each sample, GAPDH protein bands were detected as internal reference. The degradation rates of the AR protein for the compounds and positive control sample were calculated based on the grayscale of the protein bands.

T-47D cells = assay: Inhibition of cell proliferation in T-47D cells (CCK-8, 6 days); conditions: 6 days of treatment, Table 2
Summary of the method: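 T-47D cells at 3,000 cells/well in RPMI 1640 with 10% FBS were exposed to a concentration series of PROTAC compounds for 6 days at 37 °C, 5% CO2. Viability was read by CCK-8, and IC50 values were derived for proliferation inhibition.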

MCF-7 cells = assay: Inhibition of cell proliferation of MCF-7 cells (CCK-8, 6 days); conditions: 6 days of treatment, Table 4
From the text: Test Example 3 Inhibitory effect of the PROTAC compounds provided in the present disclosure on cell proliferation of MCF-7 cells
The complete medium required for MCF-7 cells (source ATCC) was DMEM (gibco, Product number :11995-065) basal medium containing 10% fetal bovine serum. MCF-7 cells were inoculated in 96-well plates at a density of 800 cells/well, and different concentrations of the PROTAC compounds 1-55 provided in the examples of the present disclosure and a positive control sample ARV-471 (source: Innochem) were prepared to treat the cells, and the cells were treated at 37°C in a cell culture incubator with 5% CO2 for 6 days. Cell viability was detected using a CCK-8 kit (Beyotime, Product number: C0040) according to the manufacturer's instructions. The IC50 values of each PROTAC compound after 6 days of treatment were calculated using GraphPadPrism software based on the inhibition rate, and the results are shown in Table 4. Table 4 IC50 values for inhibition of the proliferation of MCF-7 cells by the PROTAC compounds of the present disclosure and positive control sample

ERα [1] = target: T2, ERα (Homo sapiens, UniProt P03372); assay: Degradation of ERα in MCF-7 cells (immunoblotting, 4 h); conditions: 10nM compound
T2 sequence (P03372 1-595): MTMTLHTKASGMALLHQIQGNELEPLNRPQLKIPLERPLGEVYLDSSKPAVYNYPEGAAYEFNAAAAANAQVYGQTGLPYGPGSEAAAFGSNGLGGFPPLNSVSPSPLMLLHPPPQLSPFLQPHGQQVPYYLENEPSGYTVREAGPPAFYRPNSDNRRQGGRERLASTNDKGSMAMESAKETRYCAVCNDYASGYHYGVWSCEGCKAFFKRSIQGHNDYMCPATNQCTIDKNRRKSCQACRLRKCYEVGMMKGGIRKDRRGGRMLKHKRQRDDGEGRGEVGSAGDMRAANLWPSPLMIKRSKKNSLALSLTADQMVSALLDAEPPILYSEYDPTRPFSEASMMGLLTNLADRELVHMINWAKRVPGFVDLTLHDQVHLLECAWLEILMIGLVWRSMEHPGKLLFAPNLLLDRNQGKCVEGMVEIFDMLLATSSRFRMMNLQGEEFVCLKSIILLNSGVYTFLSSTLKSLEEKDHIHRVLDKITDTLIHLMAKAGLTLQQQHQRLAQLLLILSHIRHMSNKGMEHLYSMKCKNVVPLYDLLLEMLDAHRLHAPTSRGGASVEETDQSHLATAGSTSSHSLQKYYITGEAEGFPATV
Summary of the method: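 MCF-7 cells treated 4 h at 37°C with compounds at 0.15-1000nM final. ERα in lysates measured by immunoblot, with band grayscale normalized to an internal reference protein. Degradation rate calculated against DMSO-treated control.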

ERα [2] = target: T2, ERα; assay: Degradation of ERα in T-47D cells (immunoblotting, 4 h); parameters: host or cells: T-47D
Summary of the method: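 T-47D cells were treated with compound (final 0.15-1000 nM, DMSO) for 4 h at 37°C, 5% CO2. Cells were lysed in RIPA buffer with protease inhibitor, and ERα protein in the cleared lysate was measured by immunoblotting.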

Degradation rates of the AR protein in LNCAP cells, 10 nM (%) (AR protein) | Degradation rates of the AR protein in LNCAP cells, 100 nM (%) (AR protein) | IC50 (T-47D cells) [µM] | IC50 (MCF-7 cells) [µM] | Degradation rate (%) of ERα in MCF-7 cells (ERα [1]) [%] | Degradation rate (%) of ERα in T-47D cells (ERα [2]; 10nM compound) [%] | Degradation rate (%) of ERα in T-47D cells (ERα [2]; 1nM compound) [%] | SMILES
20 | 70 |  |  |  |  |  | C[C@H]1CC2(CCN(c3ccc(N4CCC(CN5CCC6(CC5)COc5cc7c(cc56)CN(C5CCC(=O)NC5=O)C7=O)CC4)cc3)CC2)CN1c1ccc(C#N)c(Cl)c1 (stereo partly drawn) [2-376]
48 | 63 |  |  |  |  |  | C[C@H]1CC2(CCN(c3ccc(C(=O)N4CCC(CN5CCC6(CC5)COc5cc7c(cc56)CN(C5CCC(=O)NC5=O)C7=O)CC4)cc3)CC2)CN1c1ccc(C#N)c(Cl)c1 (stereo partly drawn) [2-384]
 |  | 0.008 | 49.5 | -17 | -11 |  | O=C1CCC(N2C(=O)c3cc4c(cc3C2=O)OC2(CC4)CCN(CC3CCN(c4ccc(C5c6ccc(O)cc6CCC5c5ccccc5)cc4)CC3)CC2)C(=O)N1 (stereo not drawn) [A1]
 |  | 0.177 | 48.2 | -17 | -23 |  | O=C1CCC(N2C(=O)c3cc4c(cc3C2=O)OC2(CC4)CCN(CC3CN(c4ccc(C5c6ccc(O)cc6CCC5c5ccccc5)cc4)C3)CC2)C(=O)N1 (stereo not drawn) [A6]
 |  | 0.167 | 99.9 | -29 | -14 |  | O=C1CCC(N2C(=O)c3cc4c(cc3C2=O)OC2(CC4)CCN(c3ccc(C4c5ccc(O)cc5CCC4c4ccccc4)cc3)CC2)C(=O)N1 (stereo not drawn) [A7]
 |  | 0.035 | 37.2 | -3 | -37 |  | O=C1CCC(N2C(=O)c3cc4c(cc3C2=O)OC2(CC4)CCN(C3CC4(CCN(c5ccc(C6c7ccc(O)cc7CCC6c6ccccc6)cc5)CC4)C3)CC2)C(=O)N1 (stereo not drawn) [A10]
 |  | 0.031 | 24.5 | -9 | 12 |  | O=C1CCC(N2C(=O)c3cc4c(cc3C2=O)OCC2(CCN(C3CC5(CCN(c6ccc(C7c8ccc(O)cc8CCC7c7ccccc7)cc6)CC5)C3)CC2)C4)C(=O)N1 (stereo not drawn) [A13]
 |  | 0.044 | 4.82 | 5 | 4 |  | O=C1CCC(N2C(=O)c3cc4c(cc3C2=O)OCC2(CCN(C3CCC5(CC3)CN(c3ccc(C6c7ccc(O)cc7CCC6c6ccccc6)cc3)C5)CC2)C4)C(=O)N1 (stereo not drawn) [A14]
 |  | 0.063 | 1.19 | -2 | 16 |  | O=C1CCC(N2C(=O)c3cc4c(cc3C2=O)OCC2(CCN(C3CCC5(CC3)CCN(c3ccc(C6c7ccc(O)cc7CCC6c6ccccc6)cc3)CC5)CC2)C4)C(=O)N1 (stereo not drawn) [A15]
 |  | 0.025 | 11.6 | 18 | 36 |  | O=C1CCC(N2C(=O)c3cc4c(cc3C2=O)C2(CCN(C3CCC5(CC3)CN(c3ccc(C6c7ccc(O)cc7CCC6c6ccccc6)cc3)C5)CC2)CO4)C(=O)N1 (stereo not drawn) [A20]
 |  | 0.019 | 2.52 | 4 | -15 |  | O=C1CCC(N2Cc3cc4c(cc3C2=O)CCC2(CCN(C3CCC5(CC3)CCN(c3ccc(C6c7ccc(O)cc7CCC6c6ccccc6)cc3)CC5)CC2)O4)C(=O)N1 (stereo not drawn) [A21]
 |  | 0.057 | 0.94 | 13 | 19 |  | O=C1CCC(N2Cc3cc4c(cc3C2=O)OC2(CC4)CCN(C3CCC4(CC3)CCN(c3ccc(C5c6ccc(O)cc6CCC5c5ccccc5)cc3)CC4)CC2)C(=O)N1 (stereo not drawn) [A22]
 |  | 0.02 | 23.4 | 8 | -1 |  | O=C1CCC(N2C(=O)c3cc4c(cc3C2=O)OC2(CCN(C3CCC5(CC3)CCN(c3ccc(C6c7ccc(O)cc7CCC6c6ccccc6)cc3)CC5)CC2)C4)C(=O)N1 (stereo not drawn) [A25]
 |  | 0.117 | 44.1 |  |  |  | O=C1CCC(N2Cc3cc4c(cc3C2=O)CCC2(CCN(CC3CN(c5ccc(C6c7ccc(O)cc7CCC6c6ccccc6)cc5)C3)CC2)O4)C(=O)N1 (stereo not drawn) [M1]
 |  | 0.313 | 5.66 |  |  |  | O=C1CCC(N2Cc3cc4c(cc3C2=O)OC2(CC4)CCN(C3CC4(C3)CN(c3ccc(C5c6ccc(O)cc6CCC5c5ccccc5)cc3)C4)CC2)C(=O)N1 (stereo not drawn) [M5]
 |  | 0.011 | 4.38 |  | 54 | 22 | O=C1CCC(N2Cc3cc4c(cc3C2=O)CCC2(CCN(C3CC5(CCN(c6ccc(C7c8ccc(O)cc8CCC7c7ccccc7)cc6)CC5)C3)CC2)O4)C(=O)N1 (stereo not drawn) [M6]
 |  | 0.017 | 13.6 |  | 56 | 17 | O=C1CCC(N2Cc3cc4c(cc3C2=O)OCC2(CCN(C3CC5(CCN(c6ccc(C7c8ccc(O)cc8CCC7c7ccccc7)cc6)CC5)C3)CC2)O4)C(=O)N1 (stereo not drawn) [M7]
 |  | 0.022 | 51.7 |  |  |  | O=C1CCC(N2Cc3cc4c(cc3C2=O)OC2(CC4)CN(C3CC4(CCN(c5ccc(C6c7ccc(O)cc7CCC6c6ccccc6)cc5)CC4)C3)C2)C(=O)N1 (stereo not drawn) [M8]
 |  | 0.13 | 53.6 |  |  |  | O=C1CCC(N2C(=O)c3cc4c(cc3C2=O)OCC2(CCN(CC3CN(c5ccc(C6c7ccc(O)cc7CCC6c6ccccc6)cc5)C3)CC2)C4)C(=O)N1 (stereo not drawn) [O1]
 |  | 0.202 | 86.8 |  |  |  | O=C1CCC(N2C(=O)c3cc4c(cc3C2=O)OC2(CC4)CCN(C3CC4(C3)CN(c3ccc(C5c6ccc(O)cc6CCC5c5ccccc5)cc3)C4)CC2)C(=O)N1 (stereo not drawn) [O3]
